Data: patent US20090281083A1, “Combination Product” (ASTRAZENECA AB, priority 2005, published 2009)

Key:
[1] = system: 5/6 nephrectomy rats; assay: Survival of 5/6 nephrectomised rats at 4 months; format: in vivo, male Wistar rats; conditions: 4 months into the study (3 months of drug treatment); candesartan cilexetil 5 mg/kg/day p.o., BH4 10 mg/kg/day i.p.
Protocol: Sixty male Wistar rats, mean weight 324±4 g, were fed a normal chow diet and allowed distilled water ad libitum. The 5/6 nephrectomy was performed according to standard protocol. In brief, the animals were anaesthetized with pentobarbital [35 mg/kg body weight (BW) intraperitoneally] and then underwent a right nephrectomy and ligature of two of the major branches of the left main renal artery (Nx) at day 0. AII the nephrectomies were carried out by one operator. The animals were then randomly assigned to one of five groups, as follows. • Group 1. SHAM (n=12); sham-operated rats. • Group 2. Nx (n=15); untreated 5/6 nephrectomy rats. • Group 3. C (n=11); 5/6 nephrectomy rats to which candesartan cilexetil (AstraZeneca AB) was given daily at a dose of 5 mg/kg BW/day. • Group 4. BH4 (n=10); 5/6 nephrectomy rats administered BH4 (Alexis Biochemical, Lausen), 10 mg/kg BW/day intraperitoneally (see Hypertension 38, 1044-1048 (2001), the disclosures of which document are hereby incorporated by reference). • Group 5. C+B (n=12); 5/6 nephrectomy rats to which candesartan cilexetil (AstraZeneca AB) was given daily at a dose of 5 mg/kg BW/day and BH4 (Alexis Biochemical, Lausen), was administered at a dose of 10 mg/kg BW/day intraperitoneally.
(§1) Drug administration was begun 30 days after surgery (at a point when the nephrectomised rats have already developed hypertension and renal insufficiency). […] Systolic blood pressure (SBP) was measured in trained unstressed rats 1 day before surgery and at 30, 60, 90 and 120 days, by tail cuff manometry using an automated sphygmomanometer (Narco Bio Systems, Austin, Tex., USA). The Animal Care and Use Committee of Meir Hospital approved all procedures.
Due to abnormalities found by way of post-study autopsies, two rats were excluded from the analysis of the “C+B” group (i.e. Group 5).
At a point 4 months into the study (3 months of drug treatment for rats in groups 3 to 5), survival rates were as follows.

[2] = system: 5/6 nephrectomy rats; assay: Histological mesangial expansion score of kidneys of 5/6 nephrectomised rats; format: in vivo, male Wistar rats; conditions: 4 months into the study (3 months of drug treatment); candesartan cilexetil 5 mg/kg/day p.o., BH4 10 mg/kg/day i.p.; untreated Nx 200, sham 0
Protocol: Sixty male Wistar rats, mean weight 324±4 g, were fed a normal chow diet and allowed distilled water ad libitum. The 5/6 nephrectomy was performed according to standard protocol. In brief, the animals were anaesthetized with pentobarbital [35 mg/kg body weight (BW) intraperitoneally] and then underwent a right nephrectomy and ligature of two of the major branches of the left main renal artery (Nx) at day 0. AII the nephrectomies were carried out by one operator. The animals were then randomly assigned to one of five groups, as follows. • Group 1. SHAM (n=12); sham-operated rats. • Group 2. Nx (n=15); untreated 5/6 nephrectomy rats. • Group 3. […]
as §1, with “The Animal Care and Use Committee of Meir Hospital approved all procedures.” left out
Kidneys were fixed in neutral buffered formalin and embedded in paraffin for light microscopic study. […] A semi-quantitative score was used to assess the severity of glomerular lesions (see Nephrol. Dial. Transplant. 8, 501-506 (1993), the disclosures of which document are hereby incorporated by reference). […]

SMILES	Survival (% age) [1]	ME Score (mesangial expansion score, median value) [2]	Survival (surviving rats of group) [1]
C[C@H](O)[C@H](O)[C@H]1CNc2nc(N)[nH]c(=O)c2N1 [BH4, Tetrahydrobiopterin]	(50%)	158	–
CCOc1nc2cccc(C(=O)OC(C)OC(=O)OC3CCCCC3)c2n1Cc1ccc(-c2ccccc2-c2nnn[nH]2)cc1 (centres unmarked) [candesartan cilexetil, 1-(cyclohexyloxycarbonyloxy)ethyl ester of candesartan]	(63.64%)	82	7 of 11
